Reference: article PMC6757289, “Design and Characterization of SGK3-PROTAC1, an Isoform Specific SGK3 Kinase PROTAC Degrader” (ACS Chemical Biology, 2019)
Like-named read-outs stand apart in the source and are kept apart here.

How the values were obtained:
Assay in all cases: kinase profiling panel
Type in all cases: biochemical
[1] = target: T1, MKK6 (Homo sapiens, UniProt P52564); details: read-out: % Activity Remaining
T1 sequence (P52564 1-334): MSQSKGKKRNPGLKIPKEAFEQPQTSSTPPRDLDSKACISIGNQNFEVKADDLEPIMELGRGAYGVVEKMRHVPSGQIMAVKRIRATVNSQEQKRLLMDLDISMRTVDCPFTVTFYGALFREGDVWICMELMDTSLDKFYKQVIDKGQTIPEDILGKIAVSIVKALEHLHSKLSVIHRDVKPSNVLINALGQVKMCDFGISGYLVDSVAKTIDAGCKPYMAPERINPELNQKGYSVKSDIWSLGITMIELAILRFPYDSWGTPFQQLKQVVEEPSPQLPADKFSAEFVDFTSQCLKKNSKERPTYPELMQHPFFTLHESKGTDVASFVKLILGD
Source text: (§1) Protein kinase profiling against a Dundee panel of 140 protein kinases was undertaken at the International Centre for Protein Kinase Profiling. The result for each kinase was presented as a mean kinase activity of the reaction taken in triplicate relative to a control sample treated with DMSO. Assay conditions and abbreviations are available at http://www.kinase-screen.mrc.ac.uk.

[2] = target: VEGFR1 (Homo sapiens, UniProt P17948); details: read-out: % Activity Remaining
Source text: as §1

[3] = target: T2, ZAP70 (Homo sapiens, UniProt P43403); details: read-out: % Activity Remaining
T2 sequence (P43403 1-619): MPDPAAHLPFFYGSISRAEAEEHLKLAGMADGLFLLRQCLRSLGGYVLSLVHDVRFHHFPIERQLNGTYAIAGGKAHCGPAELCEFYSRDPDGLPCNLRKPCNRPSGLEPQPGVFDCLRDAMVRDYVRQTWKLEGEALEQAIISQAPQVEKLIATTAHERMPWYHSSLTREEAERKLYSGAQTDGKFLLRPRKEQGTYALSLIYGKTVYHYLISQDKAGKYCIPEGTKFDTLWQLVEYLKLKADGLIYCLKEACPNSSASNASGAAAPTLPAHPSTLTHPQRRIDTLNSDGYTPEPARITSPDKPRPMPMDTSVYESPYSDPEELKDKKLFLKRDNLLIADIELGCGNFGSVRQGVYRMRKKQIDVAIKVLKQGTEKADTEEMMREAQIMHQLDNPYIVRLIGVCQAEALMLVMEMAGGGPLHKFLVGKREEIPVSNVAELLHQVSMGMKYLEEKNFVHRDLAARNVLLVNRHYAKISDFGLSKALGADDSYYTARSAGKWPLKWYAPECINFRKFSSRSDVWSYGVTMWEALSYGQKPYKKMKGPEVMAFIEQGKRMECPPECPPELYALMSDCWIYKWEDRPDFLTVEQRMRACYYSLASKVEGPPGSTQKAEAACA
Source text: as §1

[4] = target: MINK1 (Homo sapiens, UniProt Q8N4C8); details: read-out: % Activity Remaining
Source text: as §1

[5] = target: T3, ASK1 (Homo sapiens, UniProt Q99683); details: read-out: % Activity Remaining
T3 sequence (Q99683 1-1374): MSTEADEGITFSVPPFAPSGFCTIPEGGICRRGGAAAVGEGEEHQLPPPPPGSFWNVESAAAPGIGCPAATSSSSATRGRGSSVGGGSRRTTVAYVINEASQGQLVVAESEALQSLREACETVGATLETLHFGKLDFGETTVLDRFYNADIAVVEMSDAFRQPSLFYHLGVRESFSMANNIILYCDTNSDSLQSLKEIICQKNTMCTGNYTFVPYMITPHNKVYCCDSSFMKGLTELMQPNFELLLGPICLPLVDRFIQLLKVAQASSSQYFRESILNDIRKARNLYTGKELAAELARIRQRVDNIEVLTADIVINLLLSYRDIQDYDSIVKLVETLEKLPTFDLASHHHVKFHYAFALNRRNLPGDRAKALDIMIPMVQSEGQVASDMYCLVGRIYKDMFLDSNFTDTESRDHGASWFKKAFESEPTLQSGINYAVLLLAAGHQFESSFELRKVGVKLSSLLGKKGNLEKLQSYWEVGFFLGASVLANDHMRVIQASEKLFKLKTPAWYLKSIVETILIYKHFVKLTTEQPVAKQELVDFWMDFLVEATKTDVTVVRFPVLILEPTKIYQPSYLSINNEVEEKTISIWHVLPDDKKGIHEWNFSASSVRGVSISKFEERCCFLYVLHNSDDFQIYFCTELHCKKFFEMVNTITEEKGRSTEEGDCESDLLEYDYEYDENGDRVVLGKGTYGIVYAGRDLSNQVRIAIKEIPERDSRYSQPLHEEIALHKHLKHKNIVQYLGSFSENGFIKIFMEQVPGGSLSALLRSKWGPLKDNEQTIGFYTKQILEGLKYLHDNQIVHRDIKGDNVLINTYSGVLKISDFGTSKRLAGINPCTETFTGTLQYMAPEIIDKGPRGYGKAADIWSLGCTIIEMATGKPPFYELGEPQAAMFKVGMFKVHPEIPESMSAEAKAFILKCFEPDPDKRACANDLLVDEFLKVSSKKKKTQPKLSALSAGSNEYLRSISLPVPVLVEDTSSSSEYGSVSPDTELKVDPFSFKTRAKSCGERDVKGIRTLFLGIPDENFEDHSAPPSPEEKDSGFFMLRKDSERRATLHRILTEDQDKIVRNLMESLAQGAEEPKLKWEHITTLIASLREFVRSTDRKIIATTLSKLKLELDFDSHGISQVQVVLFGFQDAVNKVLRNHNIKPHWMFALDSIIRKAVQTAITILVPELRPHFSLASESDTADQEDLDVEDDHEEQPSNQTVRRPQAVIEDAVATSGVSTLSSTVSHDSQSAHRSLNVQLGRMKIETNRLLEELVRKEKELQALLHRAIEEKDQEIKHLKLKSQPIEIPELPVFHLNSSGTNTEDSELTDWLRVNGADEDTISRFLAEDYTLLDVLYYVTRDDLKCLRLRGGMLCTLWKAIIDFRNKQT
Source text: as §1

[6] = target: MEKK1 (Homo sapiens, UniProt Q13233); details: read-out: % Activity Remaining
Source text: as §1

[7] = target: RIPK2 (Homo sapiens, UniProt O43353); details: read-out: % Activity Remaining
Source text: as §1

[8] = target: CSK (Homo sapiens, UniProt P41240); details: read-out: % Activity Remaining
Source text: as §1

[9] = target: STK33 (Homo sapiens, UniProt Q9BYT3)
Source text: as §1

[10] = target: S6K1 (Homo sapiens, UniProt P23443); details: read-out: % Activity Remaining
Source text: as §1

Chain of VEGFR1 (P17948 27-1338): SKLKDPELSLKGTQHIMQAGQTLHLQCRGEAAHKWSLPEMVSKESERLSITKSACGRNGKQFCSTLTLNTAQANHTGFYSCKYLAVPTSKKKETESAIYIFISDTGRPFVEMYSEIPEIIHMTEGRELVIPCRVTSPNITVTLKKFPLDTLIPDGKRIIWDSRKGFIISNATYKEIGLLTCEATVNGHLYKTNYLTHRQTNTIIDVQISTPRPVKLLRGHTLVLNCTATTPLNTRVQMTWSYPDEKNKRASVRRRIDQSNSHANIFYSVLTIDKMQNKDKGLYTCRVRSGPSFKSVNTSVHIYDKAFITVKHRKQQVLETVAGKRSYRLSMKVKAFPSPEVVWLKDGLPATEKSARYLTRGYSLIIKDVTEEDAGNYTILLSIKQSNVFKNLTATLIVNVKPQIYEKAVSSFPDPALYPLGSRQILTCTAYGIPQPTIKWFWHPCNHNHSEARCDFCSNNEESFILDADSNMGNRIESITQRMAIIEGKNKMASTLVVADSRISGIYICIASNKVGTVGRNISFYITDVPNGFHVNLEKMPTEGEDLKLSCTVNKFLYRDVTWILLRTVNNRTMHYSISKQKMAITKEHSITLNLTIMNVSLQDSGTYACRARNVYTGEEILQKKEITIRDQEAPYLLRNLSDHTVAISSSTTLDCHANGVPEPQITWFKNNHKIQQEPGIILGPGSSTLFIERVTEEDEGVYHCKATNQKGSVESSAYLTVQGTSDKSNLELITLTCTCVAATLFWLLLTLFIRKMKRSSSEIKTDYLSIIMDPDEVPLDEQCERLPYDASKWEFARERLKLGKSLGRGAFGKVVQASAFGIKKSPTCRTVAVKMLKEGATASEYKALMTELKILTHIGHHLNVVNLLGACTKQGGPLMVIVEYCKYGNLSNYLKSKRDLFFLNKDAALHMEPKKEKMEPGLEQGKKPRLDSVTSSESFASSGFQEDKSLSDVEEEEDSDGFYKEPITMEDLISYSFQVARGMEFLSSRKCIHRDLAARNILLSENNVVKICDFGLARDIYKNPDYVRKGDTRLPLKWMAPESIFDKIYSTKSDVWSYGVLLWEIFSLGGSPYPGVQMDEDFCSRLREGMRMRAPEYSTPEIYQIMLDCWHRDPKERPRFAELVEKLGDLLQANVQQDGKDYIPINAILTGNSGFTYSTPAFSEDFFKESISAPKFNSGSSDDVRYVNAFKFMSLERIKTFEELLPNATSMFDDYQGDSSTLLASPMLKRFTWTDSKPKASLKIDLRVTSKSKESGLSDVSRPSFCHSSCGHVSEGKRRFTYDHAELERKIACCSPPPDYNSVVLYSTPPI
Chain of MINK1 (Q8N4C8 whole entry): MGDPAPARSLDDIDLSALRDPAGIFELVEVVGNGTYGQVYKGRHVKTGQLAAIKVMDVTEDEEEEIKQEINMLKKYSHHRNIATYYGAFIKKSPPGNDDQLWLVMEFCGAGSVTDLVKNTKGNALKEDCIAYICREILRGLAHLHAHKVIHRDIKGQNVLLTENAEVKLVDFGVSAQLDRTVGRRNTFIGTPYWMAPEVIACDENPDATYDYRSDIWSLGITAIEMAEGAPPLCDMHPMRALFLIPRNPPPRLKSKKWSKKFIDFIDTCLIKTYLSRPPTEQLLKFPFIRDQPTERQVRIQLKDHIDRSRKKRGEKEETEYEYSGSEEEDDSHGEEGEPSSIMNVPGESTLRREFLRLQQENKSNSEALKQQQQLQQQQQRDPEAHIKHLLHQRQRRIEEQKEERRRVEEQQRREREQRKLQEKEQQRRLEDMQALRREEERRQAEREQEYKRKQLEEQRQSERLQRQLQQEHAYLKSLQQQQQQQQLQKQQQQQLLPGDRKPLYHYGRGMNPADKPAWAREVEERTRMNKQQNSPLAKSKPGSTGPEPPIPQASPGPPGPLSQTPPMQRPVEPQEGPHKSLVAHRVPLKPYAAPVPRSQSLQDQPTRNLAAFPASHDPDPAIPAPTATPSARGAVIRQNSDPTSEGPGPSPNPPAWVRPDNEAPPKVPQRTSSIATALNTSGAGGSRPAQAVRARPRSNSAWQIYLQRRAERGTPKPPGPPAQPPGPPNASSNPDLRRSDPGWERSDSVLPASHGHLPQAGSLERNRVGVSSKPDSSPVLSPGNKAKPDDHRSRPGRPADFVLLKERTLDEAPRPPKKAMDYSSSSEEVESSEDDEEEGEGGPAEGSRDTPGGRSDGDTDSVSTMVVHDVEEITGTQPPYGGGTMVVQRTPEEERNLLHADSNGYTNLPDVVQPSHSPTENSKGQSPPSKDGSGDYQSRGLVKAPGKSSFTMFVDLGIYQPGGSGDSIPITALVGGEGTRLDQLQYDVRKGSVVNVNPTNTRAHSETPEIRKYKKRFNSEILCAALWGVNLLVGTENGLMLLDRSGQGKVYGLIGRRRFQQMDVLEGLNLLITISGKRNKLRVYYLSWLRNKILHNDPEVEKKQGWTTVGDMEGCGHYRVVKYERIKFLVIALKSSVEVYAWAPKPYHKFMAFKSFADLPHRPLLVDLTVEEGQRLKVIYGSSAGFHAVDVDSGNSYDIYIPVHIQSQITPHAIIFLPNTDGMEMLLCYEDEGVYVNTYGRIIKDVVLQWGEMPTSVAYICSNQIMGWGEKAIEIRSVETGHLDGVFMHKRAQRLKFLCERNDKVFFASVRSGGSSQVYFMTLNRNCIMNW
Chain of MEKK1 (Q13233 whole entry): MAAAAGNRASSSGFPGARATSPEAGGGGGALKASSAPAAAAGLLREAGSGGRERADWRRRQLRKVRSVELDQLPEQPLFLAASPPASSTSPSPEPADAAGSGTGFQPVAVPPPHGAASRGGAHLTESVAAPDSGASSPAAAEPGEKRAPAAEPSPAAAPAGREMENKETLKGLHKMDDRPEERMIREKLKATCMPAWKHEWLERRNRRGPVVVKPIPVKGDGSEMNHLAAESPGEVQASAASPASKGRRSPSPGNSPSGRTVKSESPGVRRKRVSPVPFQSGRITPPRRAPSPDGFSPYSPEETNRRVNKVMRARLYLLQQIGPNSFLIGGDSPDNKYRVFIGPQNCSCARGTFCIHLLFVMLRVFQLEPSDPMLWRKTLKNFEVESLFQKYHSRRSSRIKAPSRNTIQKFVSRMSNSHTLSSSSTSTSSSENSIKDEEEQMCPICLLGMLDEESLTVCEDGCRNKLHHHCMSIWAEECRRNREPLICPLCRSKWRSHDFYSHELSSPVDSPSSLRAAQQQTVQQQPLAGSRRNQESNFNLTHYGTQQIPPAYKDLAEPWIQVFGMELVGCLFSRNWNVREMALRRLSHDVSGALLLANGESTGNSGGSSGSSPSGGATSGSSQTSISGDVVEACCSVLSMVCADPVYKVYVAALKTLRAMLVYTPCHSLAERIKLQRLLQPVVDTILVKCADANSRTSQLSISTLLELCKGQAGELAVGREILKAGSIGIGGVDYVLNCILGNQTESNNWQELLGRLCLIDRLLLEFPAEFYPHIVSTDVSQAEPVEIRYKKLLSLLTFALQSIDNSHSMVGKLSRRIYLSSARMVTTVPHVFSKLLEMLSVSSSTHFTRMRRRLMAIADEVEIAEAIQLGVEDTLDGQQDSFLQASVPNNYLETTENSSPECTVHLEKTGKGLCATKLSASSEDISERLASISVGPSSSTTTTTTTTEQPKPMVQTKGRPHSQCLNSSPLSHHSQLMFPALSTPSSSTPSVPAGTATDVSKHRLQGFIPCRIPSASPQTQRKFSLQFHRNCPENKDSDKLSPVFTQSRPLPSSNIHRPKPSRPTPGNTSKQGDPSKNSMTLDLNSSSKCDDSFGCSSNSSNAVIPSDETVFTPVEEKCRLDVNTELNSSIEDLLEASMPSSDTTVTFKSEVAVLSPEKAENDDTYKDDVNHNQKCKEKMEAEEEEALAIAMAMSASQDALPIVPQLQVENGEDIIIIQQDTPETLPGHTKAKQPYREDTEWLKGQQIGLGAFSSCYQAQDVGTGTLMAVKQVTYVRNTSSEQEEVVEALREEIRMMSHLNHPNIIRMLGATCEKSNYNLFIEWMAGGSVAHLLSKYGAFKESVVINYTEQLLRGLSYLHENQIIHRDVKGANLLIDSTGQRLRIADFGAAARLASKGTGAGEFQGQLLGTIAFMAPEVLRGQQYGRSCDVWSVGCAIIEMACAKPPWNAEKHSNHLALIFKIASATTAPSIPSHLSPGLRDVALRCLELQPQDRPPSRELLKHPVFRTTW
Chain of S6K1 (P23443 whole entry): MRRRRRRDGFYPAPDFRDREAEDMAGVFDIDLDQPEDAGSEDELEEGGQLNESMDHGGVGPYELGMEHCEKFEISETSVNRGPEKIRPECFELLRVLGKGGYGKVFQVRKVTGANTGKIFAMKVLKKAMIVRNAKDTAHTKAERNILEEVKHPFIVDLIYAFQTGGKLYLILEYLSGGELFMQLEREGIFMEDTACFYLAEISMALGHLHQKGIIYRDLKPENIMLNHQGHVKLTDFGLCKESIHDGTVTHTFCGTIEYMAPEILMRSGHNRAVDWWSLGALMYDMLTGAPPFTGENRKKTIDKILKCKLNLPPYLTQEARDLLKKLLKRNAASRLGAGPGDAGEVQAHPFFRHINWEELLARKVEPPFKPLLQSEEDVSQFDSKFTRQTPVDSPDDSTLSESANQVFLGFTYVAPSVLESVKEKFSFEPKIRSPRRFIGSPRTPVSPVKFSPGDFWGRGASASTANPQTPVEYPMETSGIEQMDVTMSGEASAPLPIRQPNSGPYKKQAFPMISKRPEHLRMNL
Chain of CSK (P41240 whole entry): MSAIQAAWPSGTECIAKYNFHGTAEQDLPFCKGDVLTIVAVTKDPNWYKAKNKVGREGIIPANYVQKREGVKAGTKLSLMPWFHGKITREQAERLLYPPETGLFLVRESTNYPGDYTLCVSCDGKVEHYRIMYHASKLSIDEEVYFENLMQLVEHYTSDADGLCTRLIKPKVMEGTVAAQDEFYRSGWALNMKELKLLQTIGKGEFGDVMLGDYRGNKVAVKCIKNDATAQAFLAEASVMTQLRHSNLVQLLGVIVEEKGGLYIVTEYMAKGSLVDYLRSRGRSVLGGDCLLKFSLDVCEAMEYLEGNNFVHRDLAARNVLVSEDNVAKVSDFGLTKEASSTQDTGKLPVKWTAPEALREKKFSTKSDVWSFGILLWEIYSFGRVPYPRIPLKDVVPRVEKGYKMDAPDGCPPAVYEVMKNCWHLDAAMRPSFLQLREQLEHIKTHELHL

Compound | remaining activity at 1 µM [1] | remaining activity at 1 µM [2] | remaining activity at 1 µM [3] | remaining activity at 1 µM [4] | remaining activity at 1 µM [5] | remaining activity at 1 µM [6] | remaining activity at 1 µM [7] | remaining activity at 1 µM [8] | remaining activity at 1 µM [9] | remaining activity at 1 µM [10] | remaining activity at 1 µM ([1]; 1 µM) | remaining activity at 1 µM ([2]; 1 µM) | remaining activity at 1 µM ([3]; 1 µM) | remaining activity at 1 µM ([4]; 1 µM) | remaining activity at 1 µM ([5]; 1 µM) | remaining activity at 1 µM ([6]; 1 µM) | remaining activity at 1 µM ([7]; 1 µM) | remaining activity at 1 µM ([8]; 1 µM) | remaining activity at 1 µM ([10]; 1 µM)
COc1ccc(Cl)c(S(=O)(=O)Nc2ccc(-c3nc(OC[C@H]4CNCCO4)c4c(C)n[nH]c4n3)cc2)c1 [290-R, reference compound] | 102% | 82% | 98% | 101% | 104% | 112% | 124% | 66% | 74% | 1% |  |  |  |  |  |  |  |  | 
Cc1ccc(F)c(S(=O)(=O)Nc2ccc(-c3nc(OC[C@H]4CNCCO4)c4cn[nH]c4n3)cc2)c1 [308-R, reference compound] | 66% | 95% | 101% | 83% | 87% | 115% | 122% | 96% | 36% | 1% |  |  |  |  |  |  |  |  | 
Cc1ccc(F)c(S(=O)(=O)Nc2ccc(-c3nc(OC[C@H]4CN(CCCCCCOCCOCCOCC(=O)N[C@H](C(=O)N5C[C@H](O)C[C@H]5C(=O)NCc5ccc(-c6scnc6C)cc5)C(C)(C)C)CCO4)c4cn[nH]c4n3)cc2)c1 [SGK3-PROTAC1] |  |  |  |  |  |  |  |  | 110% |  | 123% | 120% | 75% | 115% | 113% | 124% | 88% | 118% | 19%
Cc1ccc(F)c(S(=O)(=O)Nc2ccc(-c3nc(OC[C@H]4CN(CCCCCCOCCOCCOCC(=O)N[C@H](C(=O)N5C[C@@H](O)C[C@H]5C(=O)NCc5ccc(-c6scnc6C)cc5)C(C)(C)C)CCO4)c4cn[nH]c4n3)cc2)c1 [cisSGK3-PROTAC1] |  |  |  |  |  |  |  |  | 109% |  | 108% | 103% | 75% | 116% | 102% | 128% | 94% | 113% | 20%
